Data taken from the supplement of paper PMC11061612.

Columns and labels:
Experiment in all cases: Bliss excess, mean over the matrix (fraction); higher = more synergy
[1] = system: LoVo (Colorectal Carcinoma)
Method in brief: (§1)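 Cell lines grown in DMEM/F12 or RPMI with 10% FBS were plated in 1536-well plates and held 24 hours at 37°C, 5% CO2 before 72 hours of exposure to two-drug dose matrices, with DMSO typically at 0.2%. CellTiter-Glo 2.0 luminescence gave viability, which was converted to inhibition. Vehicle wells were set to 0 and blank wells to 1. Combination Emax is the second-highest inhibition in the matrix, and Bliss excess is the observed combination effect minus the expected EA + EB − EA·EB, where EA and EB are the single-agent effects.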

[2] = system: SK-OV-3 (Ovarian Carcinoma)
Method in brief: as §1

NCI-H2461 (Mesothelioma) = system: NCI-H2461 (Mesothelioma)
Method in brief: as §1

[3] = system: CAPAN-1 (Pancreatic Carcinoma)
Method in brief: as §1

[4] = system: EN (Endometrial Carcinoma)
Method in brief: as §1

[5] = system: SUP-T1 (T-Lymphoblastic Leukemia)
Method in brief: as §1

NCI-H28 (Mesothelioma) = system: NCI-H28 (Mesothelioma)
Method in brief: as §1

[6] = system: CAL-54 (Kidney Carcinoma)
Method in brief: as §1

[7] = system: Hs-633T (Other Solid Carcinomas)
Method in brief: as §1

[8] = system: NCI-H69 (Small Cell Lung Carcinoma)
Method in brief: as §1

[9] = system: SW1271 (Small Cell Lung Carcinoma)
Method in brief: as §1

NB14 (Neuroblastoma) = system: NB14 (Neuroblastoma)
Method in brief: as §1

[10] = system: K5 (Thyroid Gland Carcinoma)
Method in brief: as §1

[11] = system: LU-139 (Small Cell Lung Carcinoma)
Method in brief: as §1

[12] = system: RPMI-6666 (Non-Cancerous)
Method in brief: as §1

[13] = system: SU-DHL-6 (B-Cell Non-Hodgkin's Lymphoma)
Method in brief: as §1

[14] = system: HO-1-u-1 (Oral Cavity Carcinoma)
Method in brief: as §1

[15] = system: HARA (Squamous Cell Lung Carcinoma)
Method in brief: as §1

[16] = system: RT-112 (Bladder Carcinoma)
Method in brief: as §1

[17] = system: OC-314 (Ovarian Carcinoma)
Method in brief: as §1

Row | Compound | Bliss excess [1] | Bliss excess [2] | Bliss excess (NCI-H2461 (Mesothelioma)) | Bliss excess [3] | Bliss excess [4] | Bliss excess [5] | Bliss excess (NCI-H28 (Mesothelioma)) | Bliss excess [6] | Bliss excess [7] | Bliss excess [8] | Bliss excess [9] | Bliss excess (NB14 (Neuroblastoma)) | Bliss excess [10] | Bliss excess [11] | Bliss excess [12] | Bliss excess [13] | Bliss excess [14] | Bliss excess [15] | Bliss excess [16] | Bliss excess [17]
1 | C[C@@H](Nc1cc(F)cc(F)c1)c1cc(C(=O)N(C)C)cc2c(=O)cc(N3CCOCC3)oc12 [AZD8186] + CC(=O)c1c(C)c2cnc(Nc3ccc(N4CCNCC4)cn3)nc2n(C2CCCC2)c1=O [Palbociclib] (first compound max 10 µM, 7x7, partner max 10 µM) | -0.0314 | -0.0454 | -0.0113 | -0.0559 | -0.0262 | -0.0616 | -0.0333 | 0.0039 | 0.05 | 0.0121 | 0.0035 | 0.075 | -0.0142 | -0.025 | -0.0073 | 0.0418 | 0.0138 | 0.0281 | 0.0396 | 0.0774
2 | N#Cc1cnc(Nc2cc(NC[C@H]3CNCCO3)c(C(F)(F)F)cn2)cn1 [SRA737] + Nc1ccn([C@@H]2O[C@H](CO)[C@@H](O)C2(F)F)c(=O)n1 [Gemcitabine] (first compound max 10 µM, 7x7, partner max 0.3 µM) | -0.0137 | 0.0128 | -0.0309 | -0.0582 | -0.0331 | -0.0658 | 0.0118 | -0.0458 | 0.0301 | -0.0077 | 0.0198 | 0.0218 | 0.0428 | 0.0091 | -0.0487 | 0.101 | 0.0492 | -0.0013 | 0.178 | 0.108
3 | CN(CCO)CC[C@H](CSc1ccccc1)Nc1ccc(S(=O)(=O)NC(=O)c2ccc(N3CCC([C@@H](O)c4ccccc4-c4ccc(Cl)cc4)CC3)cc2)cc1S(=O)(=O)C(F)(F)F [AZD4320] + C[C@@H](Nc1cc(F)cc(F)c1)c1cc(C(=O)N(C)C)cc2c(=O)cc(N3CCOCC3)oc12 [AZD8186] (first compound max 1 µM, 7x7, partner max 3 µM) | 0.0355 | 0.0008 | -0.0052 | -0.0107 | -0.0377 | -0.0192 | 0.0474 | 0.0533 | 0.0082 | -0.0208 | -0.0447 | 0.0025 | -0.0505 | -0.0107 | 0.0298 | 0.0068 | -0.0242 | 0.0233 | 0.0735 | 0.0075
4 | CN(CCO)CC[C@H](CSc1ccccc1)Nc1ccc(S(=O)(=O)NC(=O)c2ccc(N3CCC([C@@H](O)c4ccccc4-c4ccc(Cl)cc4)CC3)cc2)cc1S(=O)(=O)C(F)(F)F [AZD4320] + Nc1ccn([C@@H]2O[C@H](CO)[C@@H](O)C2(F)F)c(=O)n1 [Gemcitabine] (first compound max 1 µM, 7x7, partner max 0.3 µM) | -0.0476 | -0.0695 | 0.0285 | 0.0166 | -0.0382 | 0.0225 | 0.0018 | -0.0034 | 0.0434 | -0.0064 | 0.0692 | 0.0314 | 0.0121 | 0.0388 | -0.0051 | -0.0131 | 0.0383 | -0.0498 | -0.0057 | 0.0434
5 | O=C(c1cc(Cc2n[nH]c(=O)c3ccccc23)ccc1F)N1CCN(C(=O)C2CC2)CC1 [Olaparib] + CC1(C)CCC(CN2CCN(c3ccc(C(=O)NS(=O)(=O)c4ccc(NCC5CCOCC5)c([N+](=O)[O-])c4)c(Oc4cnc5[nH]ccc5c4)c3)CC2)=C(c2ccc(Cl)cc2)C1 [Venetoclax] (first compound max 10 µM, 7x7, partner max 1 µM) | -0.038 | -0.0472 | -0.0373 | -0.0564 | -0.0025 | -0.0572 | -0.0273 | -0.0496 | -0.0018 | 0.158 | -0.0258 | 0.0052 | -0.0388 | 0.0408 | 0.134 | 0.104 | -0.0275 | -0.0206 | -0.0275 | -0.0124
6 | C[C@@H](Nc1cc(F)cc(F)c1)c1cc(C(=O)N(C)C)cc2c(=O)cc(N3CCOCC3)oc12 [AZD8186] + C1CN(CCC1(C(=O)N[C@@H](CCO)C2=CC=C(C=C2)Cl)N)C3=NC=NC4=C3C=CN4 [AZD5363] (first compound max 10 µM, 7x7, partner max 10 µM) | -0.0372 | -0.064 | -0.0449 | -0.0755 | 0.0157 | -0.0718 | -0.0165 | -0.0774 | -0.0205 | -0.0566 | -0.0388 | -0.0318 | -0.062 | -0.0299 | -0.086 | 0.0024 | -0.073 | -0.0301 | -0.0188 | 0.0624
7 | Cc1c2c(nn1C)CSCc1cc(n(C)n1)CSc1cc(c3ccccc3c1)OCCCc1c(C(=O)O)n(C)c3c-2c(Cl)ccc13 [AZD5991] + Nc1ccn([C@@H]2O[C@H](CO)[C@@H](O)C2(F)F)c(=O)n1 [Gemcitabine] (first compound max 1 µM, 7x7, partner max 0.3 µM) | -0.0693 | -0.0401 | -0.0432 | -0.0092 | -0.0535 | -0.0332 | -0.061 |  | -0.0611 | -0.0178 | -0.0354 | -0.0213 | -0.045 | -0.0133 | -0.0411 | 0.0242 | 0.0217 | -0.0107 | 0.0012 | -0.0084
